Source: patent publication US20210070748A1, “INHIBITORS OF BRUTONS TYROSINE KINASE” (Pharmacyclics LLC, priority 2015, published 2021)

Assays:
TEC = target: T1, TEC (Homo sapiens, UniProt P42680); test: Inhibition of a panel of kinases, in vitro HotSpot kinase assay: TEC; format: biochemical
T1 sequence (P42680 1-631): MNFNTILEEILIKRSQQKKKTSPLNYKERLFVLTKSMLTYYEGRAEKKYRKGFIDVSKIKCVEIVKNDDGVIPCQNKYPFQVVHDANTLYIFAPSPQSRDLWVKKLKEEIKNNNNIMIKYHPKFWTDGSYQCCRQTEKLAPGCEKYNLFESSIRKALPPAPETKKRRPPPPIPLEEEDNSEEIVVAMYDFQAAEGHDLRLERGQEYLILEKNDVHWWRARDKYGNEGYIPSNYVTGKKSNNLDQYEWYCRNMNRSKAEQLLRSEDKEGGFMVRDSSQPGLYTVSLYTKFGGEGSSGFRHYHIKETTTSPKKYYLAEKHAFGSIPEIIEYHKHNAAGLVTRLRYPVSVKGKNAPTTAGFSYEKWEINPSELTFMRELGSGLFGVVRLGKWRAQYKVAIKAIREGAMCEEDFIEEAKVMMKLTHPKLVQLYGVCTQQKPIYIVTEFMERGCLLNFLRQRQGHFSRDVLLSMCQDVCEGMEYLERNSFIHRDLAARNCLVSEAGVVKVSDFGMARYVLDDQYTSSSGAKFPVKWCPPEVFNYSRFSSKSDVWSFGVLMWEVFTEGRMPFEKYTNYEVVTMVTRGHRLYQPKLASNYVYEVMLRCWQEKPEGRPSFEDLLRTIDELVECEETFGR
Description: (§1) The degree of inhibition of a panel of kinases is determined using the in vitro HotSpot kinase assay (purified enzymes, ^33P-ATP, an appropriate substrate and 1 μM ATP).

ITK = target: T2, ITK (Homo sapiens, UniProt Q08881); test: Inhibition of a panel of kinases, in vitro HotSpot kinase assay: ITK; format: biochemical
T2 sequence (Q08881 1-620): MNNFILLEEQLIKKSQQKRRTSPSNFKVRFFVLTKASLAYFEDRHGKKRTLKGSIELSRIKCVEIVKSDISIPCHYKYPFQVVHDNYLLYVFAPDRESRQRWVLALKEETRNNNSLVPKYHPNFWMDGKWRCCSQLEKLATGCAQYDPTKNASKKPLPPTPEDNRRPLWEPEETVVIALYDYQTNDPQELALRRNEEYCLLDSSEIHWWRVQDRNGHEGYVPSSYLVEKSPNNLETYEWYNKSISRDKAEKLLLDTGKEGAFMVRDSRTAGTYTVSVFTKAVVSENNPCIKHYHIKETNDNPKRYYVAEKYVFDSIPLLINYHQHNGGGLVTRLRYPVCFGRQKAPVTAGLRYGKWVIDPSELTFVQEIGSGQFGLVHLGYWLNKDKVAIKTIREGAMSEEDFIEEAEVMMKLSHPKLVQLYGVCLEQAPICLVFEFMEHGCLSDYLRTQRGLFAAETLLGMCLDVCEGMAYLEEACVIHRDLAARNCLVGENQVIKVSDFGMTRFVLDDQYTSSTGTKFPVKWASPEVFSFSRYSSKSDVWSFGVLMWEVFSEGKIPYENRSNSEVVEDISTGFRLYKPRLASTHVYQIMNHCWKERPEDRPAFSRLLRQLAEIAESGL
Description: as §1

[1] = D-compounds panel data, 1 μM ATP

Compound | IC50 (TEC; [1]) [nM] | IC50 (ITK; [1]) [nM] | IC50 (TEC; E compounds, Table 17) [nM] | IC50 (ITK; E compounds, Table 17) [nM]
C[C@@H]1[C@H](NC(=O)c2ccc(C(C)(C)CO)cc2)CCCN1c1cnc(C(N)=O)c(Nc2cnn(C)c2)n1 [Example D-94, 5-[(2R,3R)-3-[4-(1-hydroxy-2-methylpropan-2-yl)benzamido]-2-methylpiperidin-1-yl]-3-[(1-methyl-1H-pyrazol-4-yl)amino]pyrazine-2-carboxamide] | 10 to 100 | 100 to 1000 | – | –
C[C@@H]1[C@H](NC(=O)N(C)C)CCCN1c1cnc(C(N)=O)c(Nc2cn[nH]c2)n1 [Example D-53, 5-[(2R,3R)-3-[(dimethylcarbamoyl)amino]-2-methylpiperidin-1-yl]-3-[(1H-pyrazol-4-yl)amino]pyrazine-2-carboxamide] | 10 to 100 | 100 to 1000 | – | –
C[C@@H]1[C@H](NC(=O)c2ccc(C3CC3)cc2)CCCN1c1cnc(C(N)=O)c(Nc2cnn(CC3CCOCC3)c2)n1 [Example D-319, 5-[(2R,3R)-3-(4-cyclopropylbenzamido)-2-methylpiperidin-1-yl]-3-{[1-(oxan-4-ylmethyl)-1H-pyrazol-4-yl]amino}pyrazine-2-carboxamide] | ≤ 10 | 100 to 1000 | – | –
C[C@@H]1[C@H](NC(=O)c2ccc(C3CC3)cc2)CCCN1c1cnc(C(N)=O)c(Nc2cnc(N3CCN(C)CC3)nc2)n1 [Example D-318, 5-[(2R,3R)-3-(4-cyclopropylbenzamido)-2-methylpiperidin-1-yl]-3-{[2-(4-methylpiperazin-1-yl)pyrimidin-5-yl]amino}pyrazine-2-carboxamide] | 10 to 100 | 100 to 1000 | – | –
C[C@@H]1C[C@H](NC(=O)c2ccc(C3CC3)cc2)CN(c2cnc(C(N)=O)c(Nc3cnn(C)c3)n2)C1 [Example D-32, 5-[(3S,5R)-3-(4-cyclopropylbenzamido)-5-methylpiperidin-1-yl]-3-[(1-methyl-1H-pyrazol-4-yl)amino]pyrazine-2-carboxamide] | 100 to 1000 | > 10000 | – | –
C[C@@H]1[C@H](NC(=O)c2ccc(C(C)(C)N)cc2)CCCN1c1cnc(C(N)=O)c(Nc2cnn(C)c2)n1 [Example D-51, 5-[(2R,3R)-3-[4-(2-aminopropan-2-yl)benzamido]-2-methylpiperidin-1-yl]-3-[(1-methyl-1H-pyrazol-4-yl)amino]pyrazine-2-carboxamide] | ≤ 10 | 10 to 100 | – | –
C[C@@H]1[C@H](NC(=O)c2ccc(C3CC3)cc2F)CCCN1c1cnc(C(N)=O)c(Nc2ccc(N3CCN(C)CC3)c(F)c2)n1 [Example D-82, 5-[(2R,3R)-3-(4-cyclopropyl-2-fluorobenzamido)-2-methylpiperidin-1-yl]-3-{[3-fluoro-4-(4-methylpiperazin-1-yl)phenyl]amino}pyrazine-2-carboxamide] | 10 to 100 | 100 to 1000 | – | –
CN(C)C(=O)N[C@H]1CCCN(c2cnc(C(N)=O)c(Nc3ccc(C4(C)CCN(C5CCCC5)CC4)cc3)n2)[C@@H]1CO [Example D-61, 3-{[4-(1-cyclopentyl-4-methylpiperidin-4-yl)phenyl]amino}-5-[(2S,3S)-3-[(dimethylcarbamoyl)amino]-2-(hydroxymethyl)piperidin-1-yl]pyrazine-2-carboxamide] | > 10000 | 1000 to 10000 | – | –
C[C@@H]1[C@H](NC(=O)c2cnc(C3CC3)nc2)CCCN1c1cnc(C(N)=O)c(Nc2cnn(C)c2)n1 [Example D-86, 5-[(2R,3R)-3-(2-cyclopropylpyrimidine-5-amido)-2-methylpiperidin-1-yl]-3-[(1-methyl-1H-pyrazol-4-yl)amino]pyrazine-2-carboxamide] | ≤ 10 | 10 to 100 | – | –
C[C@@H]1[C@H](NC(=O)c2ccc(C3CC3)cc2F)CCCN1c1cnc(C(N)=O)c(Nc2ccc(N3CCOCC3)cc2)n1 [Example D-73, 5-[(2R,3R)-3-(4-cyclopropyl-2-fluorobenzamido)-2-methylpiperidin-1-yl]-3-{[4-(morpholin-4-yl)phenyl]amino}pyrazine-2-carboxamide] | 10 to 100 | 100 to 1000 | – | –
C[C@@H]1[C@H](NC(=O)c2ccc3c(c2)C(C)(C)CO3)CCCN1c1cnc(C(N)=O)c(Nc2cnn(C)c2)n1 [Example D-55, 5-[(2R,3R)-3-(3,3-dimethyl-2,3-dihydro-1-benzofuran-5-amido)-2-methylpiperidin-1-yl]-3-[(1-methyl-1H-pyrazol-4-yl)amino]pyrazine-2-carboxamide] | ≤ 10 | 100 to 1000 | – | –
C[C@@H]1[C@H](NC(=O)c2ccc(C3CC3)cc2)CCCN1c1cnc(C(N)=O)c(Nc2ccc(N3CCC(C(=O)N(C)C)CC3)cc2)n1 [Example D-320, 5-[(2R,3R)-3-(4-cyclopropylbenzamido)-2-methylpiperidin-1-yl]-3-({4-[4-(dimethylcarbamoyl)piperidin-1-yl]phenyl}amino)pyrazine-2-carboxamide] | ≤ 10 | 10 to 100 | – | –
C[C@@H]1[C@H](NC(=O)c2ccc(C3CC3)cc2)CCCN1c1cnc(C(N)=O)c(Nc2ccc(C3CCOCC3)cc2)n1 [Example D-317, 5-[(2R,3R)-3-(4-cyclopropylbenzamido)-2-methylpiperidin-1-yl]-3-{[4-(oxan-4-yl)phenyl]amino}pyrazine-2-carboxamide] | 10 to 100 | > 10000 | – | –
C=CC(=O)N1CC[C@@H](N(C)c2cnc(C(N)=O)c(Nc3ccc(C4(C)CCN(C5CC5)CC4)cc3)n2)C1 [Example E-104, (R)-5-((1-acryloylpyrrolidin-3-yl)(methyl)amino)-3-(4-(1-cyclopropyl-4-methylpiperidin-4-yl)phenylammo)pyrazine-2-carboxamide] | – | – | ≤ 10 | ≤ 10
C[C@@H]1[C@H](NC(=O)N(C)C)CCCN1c1cnc(C(N)=O)c(Nc2ccc(OC3CCN(C)CC3)cc2)n1 [Example D-33, 5-[(2R,3R)-3-[(dimethylcarbamoyl)amino]-2-methylpiperidin-1-yl]-3-({4-[(1-methylpiperidin-4-yl)oxy]phenyl}amino)pyrazine-2-carboxamide] | 10 to 100 | 10 to 100 | – | –
CN(C)C(=O)N[C@H]1CCCN(c2cnc(C(N)=O)c(Nc3ccc(C4(C)CCN(C5CCCC5)CC4)cc3)n2)[C@H]1CO [Example D-59, 3-{[4-(1-cyclopentyl-4-methylpiperidin-4-yl)phenyl]amino}-5-[(2R,3S)-3-[(dimethylcarbamoyl)amino]-2-(hydroxymethyl)piperidin-1-yl]pyrazine-2-carboxamide] | > 10000 | 1000 to 10000 | – | –
C[C@@H]1[C@H](N2Cc3cc(C4CC4)ccc3C2=O)CCCN1c1cnc(C(N)=O)c(Nc2cnn(C)c2)n1 [Example D-36, 5-[(2R,3R)-3-(5-cyclopropyl-1-oxo-2,3-dihydro-1H-isoindol-2-yl)-2-methylpiperidin-1-yl]-3-[(1-methyl-1H-pyrazol-4-yl)amino]pyrazine-2-carboxamide] | ≤ 10 | 100 to 1000 | – | –
Cc1cc(Nc2nc(N3CCC[C@H](NC(=O)N(C)C)[C@@H]3CO)cnc2C(N)=O)sn1 [Example D-68, 5-[(2R,3S)-3-[(dimethylcarbamoyl)amino]-2-(hydroxymethyl)piperidin-1-yl]-3-[(3-methyl-1,2-thiazol-5-yl)amino]pyrazine-2-carboxamide] | > 10000 | > 10000 | – | –
CN1CCN(C(=O)c2ccc(Nc3nc(N[C@H]4CC[C@H](NC(=O)c5ccc(C6CC6)cc5F)CC4)cnc3C(N)=O)cc2)CC1 [Example D-70, 3-{[4-(4-methylpiperazine-1-carbonyl)phenyl]amino}-5-{[(1 r,4r)-4-(4-cyclopropyl-2-fluorobenzamido)cyclohexyl]amino}pyrazine-2-carboxamide] | 100 to 1000 | 100 to 1000 | – | –
CN1CCN(C(=O)c2ccc(Nc3nc(N[C@H]4CC[C@H](NC(=O)N(C)C)CC4)cnc3C(N)=O)cc2)CC1 [Example D-69, 3-{[4-(4-methylpiperazine-1-carbonyl)phenyl]amino}-5-{[(1 r,4r)-4-[(dimethylcarbamoyl)amino]cyclohexyl]amino}pyrazine-2-carboxamide] | 1000 to 10000 | 1000 to 10000 | – | –
Cn1cc(Nc2nc(N3CCC(NC(=O)c4ccc(C5CC5)cc4)C(O)C3)cnc2C(N)=O)cn1 (single isomer, unassigned) [Example D-29, Trans-5-[4-(4-cyclopropylbenzamido)-3-hydroxypiperidin-1-yl]-3-[(1-methyl-1H-pyrazol-4-yl)amino]pyrazine-2-carboxamide] | 1000 to 10000 | 1000 to 10000 | – | –
